Data as given in US9884868B2, “TGF-beta inhibitors” (Rigel Pharmaceuticals, Inc., priority 2015, dated 2018).

What follows are molecules tested against HIS-TGF-βR1 T204D (Homo sapiens (Human), UniProt P36897, T204D) (assay: HTRF probe displacement assay with HIS-TGF-βR1 T204D). Conditions: read-out: TGFbr1 IC50; HTRF probe displacement, 1 nM HIS-TGF-βR1 T204D, 1 hour at room temperature.
Sequence of HIS-TGF-βR1 T204D (P36897 34-503 T204D): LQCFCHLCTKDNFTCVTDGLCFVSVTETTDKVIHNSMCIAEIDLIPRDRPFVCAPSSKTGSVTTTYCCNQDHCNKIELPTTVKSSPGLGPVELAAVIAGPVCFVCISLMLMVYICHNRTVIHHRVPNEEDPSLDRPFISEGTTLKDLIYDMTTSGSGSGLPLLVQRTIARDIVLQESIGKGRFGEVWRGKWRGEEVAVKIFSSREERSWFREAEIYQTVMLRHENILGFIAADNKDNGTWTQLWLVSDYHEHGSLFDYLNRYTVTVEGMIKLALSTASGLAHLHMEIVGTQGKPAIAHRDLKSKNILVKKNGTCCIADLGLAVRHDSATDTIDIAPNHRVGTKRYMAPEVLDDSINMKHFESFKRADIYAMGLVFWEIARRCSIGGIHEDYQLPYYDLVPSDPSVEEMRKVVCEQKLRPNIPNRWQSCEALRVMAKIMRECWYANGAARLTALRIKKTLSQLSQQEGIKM

First: CC(CCO)n1cnc(-c2ccc(F)cc2)c1-c1ccc2ncc(C(N)=O)n2c1 (stereo not drawn) [154′, 6-(4-(4-fluorophenyl)-1-(4-hydroxybutan-2-yl)-1H-imidazol-5-yl)imidazo[1,2-a]pyridine-3-carboxamide]
Second: CC(CCO)n1cnc(-c2ccc(F)cc2)c1-c1ccc2ncc(C#N)n2c1 (stereo not drawn) [80′, 6-(4-(4-fluorophenyl)-1-(4-hydroxybutan-2-yl)-1H-imidazol-5-yl)imidazo[1,2-a]pyridine-3-carbonitrile]
The IC50 of the first is 13-fold lower: 2.3 nM for the first, 31 nM for the second. The first is the more potent here.

Compared with Nc1cnc2ccc(-c3c(-c4ccc(F)cc4)ncn3CC(F)F)cn12 [284D′, 6-(1-(2,2-difluoroethyl)-4-(4-fluorophenyl)-1H-imidazol-5-yl)imidazo[1,2-a]pyridin-3-amine], Fc1ccc(-c2ncn(CC(F)F)c2-c2ccc3ncc(F)n3c2)cc1 [Example 288′, 6-(1-(2,2-difluoroethyl)-4-(4-fluorophenyl)-1H-imidazol-5-yl)-3-fluoroimidazo[1,2-a]pyridine] is 47-fold higher in IC50: 1.2 nM for the first, 56.7 nM for the second.

CCCn1cnc(-c2ccc(F)cc2)c1-c1ccc2ncc(C(N)=O)n2c1 [177′, 6-(4-(4-fluorophenyl)-1-propyl-1H-imidazol-5-yl)imidazo[1,2-b]pyridine-3-carboxamide] and CC(C)Cn1cnc(-c2ccc(F)cc2)c1-c1ccc2ncc(C(N)=O)n2c1 [168′, 6-(4-(4-fluorophenyl)-1-isobutyl-1H-imidazol-5-yl)imidazo[1,2-a]pyridine-3-carboxamide] are the same in IC50: 1.1 nM for the first, 1.1 nM for the second.

Compared with Fc1ccc(-c2ncn(CC(F)F)c2-c2ccc3nccn3c2)c(F)c1 [221′, 6-(1-(2,2-difluoroethyl)-4-(2,4-difluorophenyl)-1H-imidazol-5-yl)imidazo[1,2-a]pyridine], Fc1ccc(-c2ncn(CC(F)F)c2-c2ccc3nccn3c2)cc1 [Example 218′, 6-(1-(2,2-difluoroethyl)-4-(4-fluorophenyl)-1H-imidazol-5-yl)imidazo[1,2-a]pyridine] is 9.2-fold higher in IC50: 6.8 nM for the first, 62.7 nM for the second. The first is the more potent here.

CC(C1CC1)n1cnc(-c2ccc(F)cc2)c1-c1ccc2ncc(C#N)n2c1 (stereo not drawn) [88′, 6-(1-(1-cyclopropylethyl)-4-(4-fluorophenyl)-1H-imidazol-5-yl)imidazo[1,2-a]pyridine-3-carbonitrile] and N#Cc1cnc2ccc(-c3c(-c4ccc(F)cc4)ncn3C3CC3)cn12 [77′, 6-(1-cyclopropyl-4-(4-fluorophenyl)-1H-imidazol-5-yl)imidazo[1,2-a]pyridine-3-carbonitrile] are within 1.5-fold of each other in IC50: 19.3 nM for the first, 19.8 nM for the second.

First: Fc1ccc(-c2ncn(CCC(F)(F)F)c2-c2ccc3nccn3c2)cc1Cl [182′, 6-(4-(3-chloro-4-fluorophenyl)-1-(3,3,3-trifluoropropyl)-1H-imidazol-5-yl)imidazo[1,2-a]pyridine]
Second: FCCCn1cnc(-c2ccc(F)c(Cl)c2)c1-c1ccc2nccn2c1 [183′, 6-(4-(3-chloro-4-fluorophenyl)-1-(3-fluoropropyl)-1H-imidazol-5-yl)imidazo[1,2-a]pyridine]
The IC50 of the first is 2.4-fold higher: 50.8 nM for the first, 21.6 nM for the second. The second is the more potent here.

First: COc1cc(-c2ncn(CC(F)F)c2-c2ccc3ncc(C#N)n3n2)ccc1F [262′, 6-(1-(2,2-difluoroethyl)-4-(4-fluoro-3-methoxyphenyl)-1H-imidazol-5-yl)imidazo[1,2-b]pyridazine-3-carbonitrile]
Second: N#Cc1cc(-c2ncn(CC(F)F)c2-c2ccc3ncc(C#N)n3n2)ccc1F [266′, 6-(4-(3-cyano-4-fluorophenyl)-1-(2,2-difluoroethyl)-1H-imidazol-5-yl)imidazo[1,2-b]pyridazine-3-carbonitrile]
The IC50 of the first is 1.5-fold lower: 5.2 nM for the first, 7.9 nM for the second.

Compared with CC(C)(O)Cn1cnc(-c2ccc(F)cc2)c1-c1ccc2ncc(C#N)n2n1 [26′, 6-(4-(4-fluorophenyl)-1-(2-hydroxy-2-methylpropyl)-1H-imidazol-5-yl)imidazo[1,2-b]pyridazine-3-carbonitrile], CCC(C)(C)n1cnc(-c2ccc(F)cc2)c1-c1ccc2ncc(C#N)n2n1 [30′, 6-(4-(4-fluorophenyl)-1-(tert-pentyl)-1H-imidazol-5-yl)imidazo[1,2-b]pyridazine-3-carbonitrile] is 10-fold lower in IC50: 92.6 nM for the first, 9.2 nM for the second.

Going from Fc1ccc(-c2ncn(CC(F)F)c2-c2ccc3ncc(C(F)F)n3c2)cc1 [Example 277′, 6-(1-(2,2-difluoroethyl)-4-(4-fluorophenyl)-1H-imidazol-5-yl)-3-(difluoromethyl)imidazo [1,2-a]pyridine] to CC(O)c1cnc2ccc(-c3c(-c4ccc(F)cc4)ncn3CC(F)F)cn12 (stereo not drawn) [Example 274′, 1-(6-(1-(2,2-difluoroethyl)-4-(4-fluorophenyl)-1H-imidazol-5-yl)imidazo[1,2-a]pyridin-3-yl)ethanol], the IC50 rises from 20.9 nM to 137 nM (6.6-fold).

Compared with NC(=O)c1cnc2ccc(-c3c(-c4ccc(F)c(F)c4)ncn3CC(F)F)cn12 [232′, 6-(1-(2,2-difluoroethyl)-4-(3,4-difluorophenyl)-1H-imidazol-5-yl)imidazo[1,2-a]pyridine-3-carboxamide], NC(=O)c1cnc2ccc(-c3c(-c4ccc(F)cc4F)ncn3CC(F)F)cn12 [233′, 6-(1-(2,2-difluoroethyl)-4-(2,4-difluorophenyl)-1H-imidazol-5-yl)imidazo[1,2-a]pyridine-3-carboxamide] is 1.8-fold lower in IC50: 1.8 nM for the first, 1 nM for the second. The second is the more potent here.

Going from N#Cc1cnc2ccc(-c3c(-c4cccc(N)c4)ncn3CC(F)F)nn12 [240′, 6-(4-(3-aminophenyl)-1-(2,2-difluoroethyl)-1H-imidazol-5-yl)imidazo[1,2-b]pyridazine-3-carbonitrile] to N#Cc1cnc2ccc(-c3c(-c4ccc(F)c(Cl)c4)ncn3CCCO)nn12 [38′, 6-(4-(3-chloro-4-fluorophenyl)-1-(3-hydroxypropyl)-1H-imidazol-5-yl)imidazo[1,2-b]pyridazine-3-carbonitrile], the IC50 falls from 14.3 nM to 1 nM (14-fold). The second is the more potent here.

First: N#Cc1cnc2ccc(-c3c(-c4cc(Cl)c(F)cc4F)ncn3CC(F)F)cn12 [229′, 6-(4-(5-chloro-2,4-difluorophenyl)-1-(2,2-difluoroethyl)-1H-imidazol-5-yl)imidazo[1,2-a]pyridine-3-carbonitrile]
Second: CCn1cnc(-c2ccc(F)cc2)c1-c1ccc2ncc(C#N)n2c1 [73′, 6-(1-ethyl-4-(4-fluorophenyl)-1H-imidazol-5-yl)imidazo[1,2-a]pyridine-3-carbonitrile]
The IC50 of the first is 4.2-fold lower: 8.6 nM for the first, 36.2 nM for the second. The first is the more potent here.

Going from CCC(CO)n1cnc(-c2ccc(F)cc2)c1-c1ccc2ncc(C#N)n2c1 (stereo not drawn) [83′, 6-(4-(4-fluorophenyl)-1-(1-hydroxybutan-2-yl)-1H-imidazol-5-yl)imidazo[1,2-a]pyridine-3-carbonitrile] to CC[C@@H](CO)n1cnc(-c2ccc(F)cc2)c1-c1ccc2ncc(C#N)n2n1 [Example 6′, (S)-6-(4-(4-fluorophenyl)-1-(1-hydroxybutan-2-yl)-1H-imidazol-5-yl)imidazo[1,2-b]pyridazine-3-carbonitrile], the IC50 falls from 189 nM to 5 nM (38-fold). The second is the more potent here.

First: Cn1cnc(-c2ccc(F)c(Cl)c2)c1-c1ccc2nccn2c1 [181′, 6-(4-(3-chloro-4-fluorophenyl)-1-methyl-1H-imidazol-5-yl)imidazo[1,2-a]pyridine]
Second: Cc1nc(-c2ccc(F)cc2)c(-c2ccc3nccn3c2)n1CC(F)F [Example 271′, 6-(1-(2,2-difluoroethyl)-4-(4-fluorophenyl)-2-methyl-1H-imidazol-5-yl)imidazo[1,2-a]pyridine]
The IC50 of the first is 29-fold lower: 6 nM for the first, 172 nM for the second.

Going from CC1(n2cnc(-c3ccc(F)c(Cl)c3)c2-c2ccc3ncc(C#N)n3n2)CC1 [41′, 6-(4-(3-chloro-4-fluorophenyl)-1-(1-methylcyclopropyl)-1H-imidazol-5-yl)imidazo[1,2-b]pyridazine-3-carbonitrile] to Cn1cnc(-c2ccc(F)cc2)c1-c1ccc2ncc(C#N)n2n1 [19′, 6-(4-(4-fluorophenyl)-1-methyl-1H-imidazol-5-yl)imidazo[1,2-b]pyridazine-3-carbonitrile], the IC50 rises from 0.9 nM to 9.9 nM (11-fold). The first is the more potent here.

Compared with NC(=O)c1cnc2ccc(-c3c(-c4ccc(F)cc4)nc4n3CCNC4)cn12 [Example 290′, 6-(2-(4-fluorophenyl)-5,6,7,8-tetrahydroimidazo[1,2-60]pyrazin-3-yl)imidazo[1,2-a]pyridine-3-carboxamide], NC(=O)c1cnc2ccc(-c3c(-c4ccc(F)cc4)ncn3C[C@@H](O)CO)cn12 [164′, (R)-6-(1-(2,3-dihydroxypropyl)-4-(4-fluorophenyl)-1H-imidazol-5-yl)imidazo[1,2-a]pyridine-3-carboxamide] is 3.8-fold lower in IC50: 21.6 nM for the first, 5.7 nM for the second.

Compared with NC(=O)c1cnc2ccc(-c3c(-c4ccc(F)c(Cl)c4)ncn3CCC3CCC3)nn12 [150′, 6-(4-(3-chloro-4-fluorophenyl)-1-(2-cyclobutylethyl)-1H-imidazol-5-yl)imidazo[1,2-b]pyridazine-3-carboxamide], NC(=O)c1cnc2ccc(-c3c(-c4ccc(F)cc4)ncn3CCCO)nn12 [132′, 6-(4-(4-fluorophenyl)-1-(3-hydroxypropyl)-1H-imidazol-5-yl)imidazo[1,2-b]pyridazine-3-carboxamide] is 3.9-fold higher in IC50: 1.2 nM for the first, 4.7 nM for the second.

Going from C=Cc1cnc2ccc(-c3c(-c4ccc(F)cc4)ncn3CC(F)F)nn12 [213E′, 6-(1-(2,2-difluoroethyl)-4-(4-fluorophenyl)-1H-imidazol-5-yl)-3-vinylimidazo[1,2-b]pyridazine] to CC(=O)Nc1cnc2ccc(-c3c(-c4ccc(F)cc4)ncn3CC(F)F)nn12 [Example 212′, N-(6-(1-(2,2-difluoroethyl)-4-(4-fluorophenyl)-1H-imidazol-5-yl)imidazo[1,2-b]pyridazin-3-yl)acetamide], the IC50 rises from 1.6 nM to 9.3 nM (5.8-fold).

Going from CC(=O)Nc1nc(-c2ccc(F)cc2)c(-c2ccc3nccn3c2)[nH]1 [Example 295′, N-(4-(4-fluorophenyl)-5-(imidazo[1,2-a]pyridin-6-yl)-1H-imidazol-2-yl)acetamide] to N#Cc1cnc2ccc(-c3c(-c4ccc(F)cc4)ncn3C3CC3)nn12 [7′, 6-(1-cyclopropyl-4-(4-fluorophenyl)-1H-imidazol-5-yl)imidazo[1,2-b]pyridazine-3-carbonitrile], the IC50 falls from 55 nM to 2.4 nM (23-fold). The second is the more potent here.

For N#Cc1cnc2ccc(-c3c(-c4ccc(F)cc4)ncn3C3CC(CO)C3)nn12 (stereo not drawn) [27′, 6-(4-(4-fluorophenyl)-1-(3-(hydroxymethyl)cyclobutyl)-1H-imidazol-5-yl)imidazo[1,2-b]pyridazine-3-carbonitrile], the IC50 was 0.6 nM.
